# Data reported in PubChem BioAssay AID1963958 (Molecular Pharmacology Branch, DTP, NCI, 2024).
# Tested on: MDA-MB-231 multicell spheroids, viability
# Assay: Anticancer human tumor MDA-MB-231 cell line growth inhibition [PI3K];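 further: spheroids exposed to agents for seven days before reading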;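 on viability, T/C: percent of vehicle control luminescence with DMSO treated spheroids as 100%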
# Conditions: for IC50: curve of first compound; for viability, T/C: stronger effect = lower value
# Method in brief: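 Combination activity was assessed by viability in multicellular tumor spheroids carrying HUVEC and MSC components. Agents were tested with PI3K inhibitors from a Cmax-based top dose (or 10 microM) downward in half-log increments.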
smiles,measurement,setting,value
CCCS(=O)(=O)Nc1ccc(F)c(C(=O)c2c[nH]c3ncc(-c4ccc(Cl)cc4)cc23)c1F + Cc1nc(NC(=O)N2CCCC2C(N)=O)sc1-c1ccnc(C(C)(C)C(F)(F)F)c1,IC50,second compound 0.0316 µM,4.68 µM
same,IC50,second compound 0.1 µM,3.51 µM
same,IC50,second compound 0.316 µM,2.52 µM
same,IC50,second compound 1 µM,1.54 µM
same,IC50,second compound 3.16 µM,1.17 µM
same,IC50,second compound 10 µM,0.359 µM
same,"viability, T/C","second compound 0.0316 µM, first compound 0.0316 µM",102%
same,"viability, T/C","second compound 0.0316 µM, first compound 0.1 µM",102%
same,"viability, T/C","second compound 0.0316 µM, first compound 0.316 µM",85.5%
same,"viability, T/C","second compound 0.0316 µM, first compound 1 µM",80%
same,"viability, T/C","second compound 0.0316 µM, first compound 3.16 µM",59.4%
same,"viability, T/C","second compound 0.0316 µM, first compound 10 µM",31.7%
same,"viability, T/C","second compound 0.1 µM, first compound 0.0316 µM",90.6%
same,"viability, T/C","second compound 0.1 µM, first compound 0.1 µM",96.6%
same,"viability, T/C","second compound 0.1 µM, first compound 0.316 µM",83.6%
same,"viability, T/C","second compound 0.1 µM, first compound 1 µM",74.1%
same,"viability, T/C","second compound 0.1 µM, first compound 3.16 µM",51.6%
same,"viability, T/C","second compound 0.1 µM, first compound 10 µM",32.6%
same,"viability, T/C","second compound 0.316 µM, first compound 0.0316 µM",80.4%
same,"viability, T/C","second compound 0.316 µM, first compound 0.1 µM",80.8%
same,"viability, T/C","second compound 0.316 µM, first compound 0.316 µM",72.7%
same,"viability, T/C","second compound 0.316 µM, first compound 1 µM",67.2%
same,"viability, T/C","second compound 0.316 µM, first compound 3.16 µM",45.3%
same,"viability, T/C","second compound 0.316 µM, first compound 10 µM",31.4%
same,"viability, T/C","second compound 1 µM, first compound 0.0316 µM",72.3%
same,"viability, T/C","second compound 1 µM, first compound 0.1 µM",66.6%
same,"viability, T/C","second compound 1 µM, first compound 0.316 µM",64.8%
same,"viability, T/C","second compound 1 µM, first compound 1 µM",57.5%
same,"viability, T/C","second compound 1 µM, first compound 3.16 µM",38.9%
same,"viability, T/C","second compound 1 µM, first compound 10 µM",29%
same,"viability, T/C","second compound 3.16 µM, first compound 0.0316 µM",68.8%
same,"viability, T/C","second compound 3.16 µM, first compound 0.1 µM",64.8%
same,"viability, T/C","second compound 3.16 µM, first compound 0.316 µM",62.3%
same,"viability, T/C","second compound 3.16 µM, first compound 1 µM",51.2%
same,"viability, T/C","second compound 3.16 µM, first compound 3.16 µM",38.8%
same,"viability, T/C","second compound 3.16 µM, first compound 10 µM",25.9%
same,"viability, T/C","second compound 10 µM, first compound 0.0316 µM",61.1%
same,"viability, T/C","second compound 10 µM, first compound 0.1 µM",56%
same,"viability, T/C","second compound 10 µM, first compound 0.316 µM",50.3%
same,"viability, T/C","second compound 10 µM, first compound 1 µM",43%
same,"viability, T/C","second compound 10 µM, first compound 3.16 µM",36.8%
same,"viability, T/C","second compound 10 µM, first compound 10 µM",22.3%
